How the values were obtained:
Assay type in all cases: cell-based
[1] = target: T1, pERK1/2 (Thr202/Tyr204), NCI-1H358 (KRAS G12C) (Homo sapiens, UniProt P01116, G12C); test: Assay of intracellular pERK1/2 (Thr202/Tyr204) phosphorylation in NCI-H358 cells (KRAS G12C); settings: pERK1/2, 2 days, read-out: NCI-H358 (KRAS G12C) IC50
T1 construct: pERK1/2 HTRF read-out
Outline: (§1)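 HTRF detection of Thr202/Tyr204-phosphorylated ERK1/2 (665/615 nm ratio) in lysates from cells treated 2 days with serially 3-fold diluted compound.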

[2] = target: T2, pERK1/2 (Thr202/Tyr204), PANC-1 (KRAS G121D) (Homo sapiens, UniProt P01116, G12D); test: Assay of intracellular pERK1/2 (Thr202/Tyr204) phosphorylation in PANC-1 cells (KRAS G12D); settings: pERK1/2, 2 days, read-out: PANC-1 (KRAS G12D) IC50
T2 construct: pERK1/2 HTRF read-out
T2 sequence (P01116 1-188 isoform P01116-2 G12D): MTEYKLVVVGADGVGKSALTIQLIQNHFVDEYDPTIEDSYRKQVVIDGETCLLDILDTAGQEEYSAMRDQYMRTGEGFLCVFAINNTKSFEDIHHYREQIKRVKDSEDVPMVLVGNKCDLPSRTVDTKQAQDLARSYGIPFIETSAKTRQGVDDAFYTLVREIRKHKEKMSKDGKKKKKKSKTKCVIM
Outline: as §1

[3] = target: T3, pERK1/2 (Thr202/Tyr204), NCI-1H441 (KRAS G12V) (Homo sapiens, UniProt P01116, G12V); test: Assay of intracellular pERK1/2 (Thr202/Tyr204) phosphorylation in NCI-H441 cells (KRAS G12V); settings: pERK1/2, 2 days, read-out: NCI-H441 (KRAS G12V) IC50
T3 construct: pERK1/2 HTRF read-out
T3 sequence (P01116 1-188 isoform P01116-2 G12V): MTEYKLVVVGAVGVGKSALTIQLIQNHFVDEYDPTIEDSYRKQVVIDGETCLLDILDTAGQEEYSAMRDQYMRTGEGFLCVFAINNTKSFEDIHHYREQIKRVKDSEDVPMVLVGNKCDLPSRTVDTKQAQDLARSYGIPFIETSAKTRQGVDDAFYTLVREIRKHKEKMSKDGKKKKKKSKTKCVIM
Outline: as §1

T1 sequence (P01116 1-188 isoform P01116-2 G12C): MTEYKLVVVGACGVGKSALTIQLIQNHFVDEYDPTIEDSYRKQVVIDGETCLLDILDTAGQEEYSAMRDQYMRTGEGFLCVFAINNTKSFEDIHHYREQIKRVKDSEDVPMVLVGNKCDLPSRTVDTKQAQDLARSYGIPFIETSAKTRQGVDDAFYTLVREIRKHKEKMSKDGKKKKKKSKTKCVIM

IC50 [1]	IC50 [2]	IC50 [3]	SMILES
> 100 nM	> 100 nM	> 100 nM	CC(c1cccnc1N)N1CCOc2nc(-c3cc(N)cc(F)c3C(F)(F)F)c(F)c3nc(OC[C@@H]4C[C@@H](F)CN4C)nc1c23 (single isomer, unassigned) [Compound 93, 3-((R or S)-1-(5-(5-amino-3-fluoro-2-(trifluoromethyl)phenyl)-4-fluoro-2-(((2S,4R)-4-fluoro-1-methylpyrrolidin-2-yl)methoxy)-8,9-dihydro-10H-7-oxa-1,3,6,10-tetraazacyclohepta[de]naphthalen-10-yl)ethyl)pyridin-2-amine]
0.8 nM	24 nM	2 nM	[2H]C([2H])([2H])N1CCC[C@H]1COc1nc2c3c(nc(-c4cc(N)cc(C)c4C(F)(F)F)c(F)c3n1)OCCN2C(C)c1cccnc1N (single isomer, unassigned) [Compound 95, 3-((R or S)-1-(5-(5-amino-3-methyl-2-(trifluoromethyl)phenyl)-4-fluoro-2-(((S)-1-(methyl-d3)pyrrolidin-2-yl)methoxy)-8,9-dihydro-10H-7-oxa-1,3,6,10-tetraazacyclohepta[de]naphthalen-10-yl)ethyl)pyridin-2-amine]
27 nM	> 100 nM	57 nM	[2H]C([2H])([2H])N1CCC[C@H]1COc1nc2c3c(nc(-c4cc(N)cc(C)c4C(F)(F)F)c(F)c3n1)OCCN2C(C)c1cccnc1N (single isomer, unassigned) [Compound 96, 3-((R or S)-1-(5-(5-amino-3-methyl-2-(trifluoromethyl)phenyl)-4-fluoro-2-(((S)-1-(methyl-d3)pyrrolidin-2-yl)methoxy)-8,9-]
0.3 nM	10 nM	0.5 nM	CC(c1cccnc1N)N1CCOc2nc(-c3cc(N)cc(Cl)c3C(F)(F)F)c(F)c3nc(OC[C@@H]4CCCN4C)nc1c23 (single isomer, unassigned) [Compound 98, 3-((R or S)-1-(5-(5-amino-3-chloro-2-(trifluoromethyl)phenyl)-4-fluoro-2-(((S)-1-methylpyrrolidin-2-yl)methoxy)-8,9-dihydro-10H-7-oxa-1,3,6,10-tetraazacyclohepta[de]naphthalen-10-yl)ethyl)pyridin-2-amine]
27 nM	> 100 nM	33 nM	CC(c1cccnc1N)N1CCOc2nc(-c3cc(N)cc(Cl)c3C(F)(F)F)c(F)c3nc(OC[C@@H]4CCCN4C)nc1c23 (single isomer, unassigned) [Compound 99, 3-((R or S)-1-(5-(5-amino-3-chloro-2-(trifluoromethyl)phenyl)-4-fluoro-2-(((S)-1-methylpyrrolidin-2-yl)methoxy)-8,9-dihydro-10H-7-oxa-1,3,6,10-tetraazacyclohepta[de]naphthalen-10-yl)ethyl)pyridin-2-amine]
93 nM	> 100 nM	> 100 nM	Cc1cc(N)cc(-c2nc3c4c(nc(OC[C@]56CCCN5[C@@H](CO)CC6)nc4c2F)N([C@H](C)c2cccnc2N)CCO3)c1C(F)(F)F (single isomer, unassigned) [Compound 100, ((3R,7aR)-7a-(((5-(5-amino-3-methyl-2-(trifluoromethyl)phenyl)-10-((R or S)-1-(2-aminopyridin-3-yl)ethyl)-4-fluoro-9,10-dihydro-8H-7-oxa-1,3,6,10-tetraazacyclohepta[de]naphthalen-2-yl)oxy)methyl)hexahydro-1H-pyrrrolizin-3-yl)methanol]
> 100 nM	> 100 nM	> 100 nM	Cc1cc(N)cc(-c2nc3c4c(nc(OC[C@]56CCCN5[C@@H](CO)CC6)nc4c2F)N(C(C)c2cccnc2N)CCO3)c1C(F)(F)F (single isomer, unassigned) [Compound 101, ((3R,7aR)-7a-(((5-(5-amino-3-methyl-2-(trifluoromethyl)phenyl)-10-((R or S)-1-(2-aminopyridin-3-yl)ethyl)-4-fluoro-9,10-dihydro-8H-7-oxa-1,3,6,10-tetraazacyclohepta[de]naphthalen-2-yl)oxy)methyl)hexahydro-1H-pyrrolizin-3-yl)methanol]
0.8 nM	38 nM	2 nM	[2H]C([2H])(Oc1nc2c3c(nc(-c4cc(N)cc(C)c4C(F)(F)F)c(F)c3n1)OCCN2C(C)c1cccnc1N)[C@@H]1CCC([2H])([2H])N1C([2H])([2H])[2H] (single isomer, unassigned) [Compound 102, 3-((R or S)-1-(5-(5-amino-3-methyl-2-(trifluoromethyl)phenyl)-4-fluoro-2-(((S)-1-(methyl-d3)pyrrolidin-2-yl-5,5-d2)methoxy-d2)-8,9-dihydro-10H-7-oxa-1,3,6,10-tetraazacyclohepta[de]naphthalen-10-yl)ethyl)pyridin-2-amine]
60 nM	> 100 nM	> 100 nM	[2H]C([2H])(Oc1nc2c3c(nc(-c4cc(N)cc(C)c4C(F)(F)F)c(F)c3n1)OCCN2C(C)c1cccnc1N)[C@@H]1CCC([2H])([2H])N1C([2H])([2H])[2H] (single isomer, unassigned) [Compound 103, 3-((R or S)-1-(5-(5-amino-3-methyl-2-(trifluoromethyl)phenyl)-4-fluoro-2-(((S)-1-(methyl-d3)pyrrolidin-2-yl-5,5-d2)methoxy-d2)-8,9-dihydro-10H-7-oxa-1,3,6,10-tetraazacyclohepta[de]naphthalen-10-yl)ethyl)pyridin-2-amine]
> 100 nM	> 100 nM	> 100 nM	Cc1cc(N)cc(-c2nc3c4c(nc(OC[C@@H]5CCCN5)nc4c2F)N(C(C)c2cccnc2N)CCO3)c1C(F)(F)F (single isomer, unassigned) [Compound 106]
89 nM	> 100 nM	> 100 nM	Cc1cc(N)cc(-c2nc3c4c(nc(N5CCC[C@H]5CO)nc4c2F)N(C(C)c2cccnc2N)CCO3)c1C(F)(F)F (single isomer, unassigned) [Compound 107]
0.9 nM	41 nM	2 nM	Cc1cc(N)cc(-c2nc3c4c(nc(OC[C@H]5CCCN5C)nc4c2F)N(C(C)c2cccnc2N)CCO3)c1C(F)(F)F (single isomer, unassigned) [Compound 109, 3-((R or S)-1-(5-(5-amino-3-methyl-2-(trifluoromethyl)phenyl)-4-fluoro-2-(((R)-1-methylpyrrolidin-2-yl)methoxy)-8,9-dihydro-10H-7-oxa-1,3,6,10-tetraazacyclohepta[de]naphthalen-10-yl)ethyl)pyridin-2-amine]
> 100 nM	> 100 nM	> 100 nM	Cc1cc(N)cc(-c2nc3c4c(nc(OC[C@H]5CCCN5C)nc4c2F)N(C(C)c2cccnc2N)CCO3)c1C(F)(F)F (single isomer, unassigned) [Compound 110, 3-((R or S)-1-(5-(5-amino-3-methyl-2-(trifluoromethyl)phenyl)-4-fluoro-2-(((R)-1-methylpyrrolidin-2-yl)methoxy)-8,9-dihydro-10H-7-oxa-1,3,6,10-tetraazacyclohepta[de]naphthalen-10-yl)ethyl)pyridin-2-amine]
0.2 nM	0.9 nM	0.2 nM	[2H]C1([2H])CC[C@@]2(C([2H])([2H])Oc3nc4c5c(nc(-c6cc(N)cc(C)c6C(F)(F)F)c(F)c5n3)OCCN4C(C)c3cccnc3N)C[C@@H](F)CN12 (single isomer, unassigned) [Compound 115, 3-((R or S)-1-(5-(5-amino-3-methyl-2-(trifluoromethyl)phenyl)-4-fluoro-2-(((2R,7aS)-2-fluorotetrahydro-1H-pyrrolizin-7a(5H)-yl-5,5-d2)methoxy-d2)-8,9-dihydro-10H-7-oxa-1,3,6,10-tetraazacyclohepta[de]naphthalen-10-yl)ethyl)pyridin-2-amine]
4 nM	23 nM	9 nM	[2H]C1([2H])CC[C@@]2(C([2H])([2H])Oc3nc4c5c(nc(-c6cc(N)cc(C)c6C(F)(F)F)c(F)c5n3)OCCN4C(C)c3cccnc3N)C[C@@H](F)CN12 (single isomer, unassigned) [Compound 116, 3-((R or S)-1-(5-(5-amino-3-methyl-2-(trifluoromethyl)phenyl)-4-fluoro-2-(((2R,7aS)-2-fluorotetrahydro-1H-pyrrolizin-7a(5H)-yl-5,5-d2)methoxy-d2)-8,9-dihydro-10H-7-oxa-1,3,6,10-tetraazacyclohepta[de]naphthalen-10-yl)ethyl)pyridin-2-amine]
26 nM	> 100 nM	36 nM	Cc1cc(N)cc(-c2nc3c4c(nc(OCC5CCOCC5)nc4c2F)N(C(C)c2cccnc2N)CCO3)c1C(F)(F)F (single isomer, unassigned) [Compound 117, (R or S)-3-(1-(5-(5-amino-3-methyl-2-(trifluoromethyl)phenyl)-4-fluoro-2-((tetrahydro-2H-pyran-4-yl)methoxy)-8,9-dihydro-10H-7-oxa-1,3,6,10-tetraazacyclohepta[de]naphthalen-10-yl)ethyl)pyridin-2-amine]
> 100 nM	> 100 nM	> 100 nM	Cc1cc(N)cc(-c2nc3c4c(nc(OCC5CCOCC5)nc4c2F)N([C@@H](C)c2cccnc2N)CCO3)c1C(F)(F)F (single isomer, unassigned) [Compound 118, (R or S)-3-(1-(5-(5-amino-3-methyl-2-(trifluoromethyl)phenyl)-4-fluoro-2-((tetrahydro-2H-pyran-4-yl)methoxy)-8,9-dihydro-10H-7-oxa-1,3,6,10-tetraazacyclohepta[de]napthalen-10-yl)ethyl)pyridin-2-amine]
